Test results taken from ChEMBL document CHEMBL5303573, “Mapping human microbiome drug metabolism by gut bacteria and their genes” (Nature, 2019).

Key:
[1] = The drug is tested on Enterobacter cancerogenus strain: ATCC35316 for biotransformation. The drug concentrations were measured before and after a 12-h incubation by liquid-chromatography-coupled mass spectrometry (LC–MS); details: 2 µM
[2] = The drug is tested on Clostridium symbiosum strain: ATCC14940 for biotransformation. The drug concentrations were measured before and after a 12-h incubation by liquid-chromatography-coupled mass spectrometry (LC–MS); details: 2 µM
[3] = bacteroides fragilis, 12 h, 2 µM
Description: The drug is tested on Bacteroides fragilis strain: 3397 (T10) for biotransformation. The drug concentrations were measured before and after a 12-h incubation by liquid-chromatography-coupled mass spectrometry (LC–MS)

[4] = The drug is tested on Bacteroides pectinophilus strain: ATCC43243 for biotransformation. The drug concentrations were measured before and after a 12-h incubation by liquid-chromatography-coupled mass spectrometry (LC–MS); details: 2 µM
[5] = The drug is tested on Escherichia coli strain: BW25113 for biotransformation. The drug concentrations were measured before and after a 12-h incubation by liquid-chromatography-coupled mass spectrometry (LC–MS); details: 2 µM
[6] = The drug is tested on Providencia stuartii strain: ATCC25827 for biotransformation. The drug concentrations were measured before and after a 12-h incubation by liquid-chromatography-coupled mass spectrometry (LC–MS); details: 2 µM
[7] = The drug is tested on Eubacterium hallii strain: DSM3353 for biotransformation. The drug concentrations were measured before and after a 12-h incubation by liquid-chromatography-coupled mass spectrometry (LC–MS); details: anaerobutyricum hallii, 2 µM
[8] = bacteroides thetaiotaomicron, 12 h, 2 µM
Description: The drug is tested on Bacteroides thetaiotaomicron strain: VPI-5482 for biotransformation. The drug concentrations were measured before and after a 12-h incubation by liquid-chromatography-coupled mass spectrometry (LC–MS)

[9] = The drug is tested on Providencia rettgeri strain: DSM1131 for biotransformation. The drug concentrations were measured before and after a 12-h incubation by liquid-chromatography-coupled mass spectrometry (LC–MS); assay type: ADME; parameters: dose 2 uM, timepoint 0 vs 12 hours; details: 2 µM
[10] = The drug is tested on Bifidobacterium longum subsp. Infantis strain: CCUG52486 for biotransformation. The drug concentrations were measured before and after a 12-h incubation by liquid-chromatography-coupled mass spectrometry (LC–MS); details: 2 µM
[11] = enterocloster bolteae, 12 h, 2 µM
Description: The drug is tested on Clostridium bolteae strain: ATCCBAA-613 for biotransformation. The drug concentrations were measured before and after a 12-h incubation by liquid-chromatography-coupled mass spectrometry (LC–MS)

[12] = The drug is tested on Collinsella aerofaciens strain: ATCC25986 for biotransformation. The drug concentrations were measured before and after a 12-h incubation by liquid-chromatography-coupled mass spectrometry (LC–MS); details: 2 µM
[13] = parabacteroides distasonis, 12 h, 2 µM
Description: The drug is tested on Parabacteroides distasonis strain: ATCC8503 for biotransformation. The drug concentrations were measured before and after a 12-h incubation by liquid-chromatography-coupled mass spectrometry (LC–MS)

[14] = The drug is tested on Clostridium scindens strain: ATCC35704 for biotransformation. The drug concentrations were measured before and after a 12-h incubation by liquid-chromatography-coupled mass spectrometry (LC–MS); details: 2 µM
[15] = The drug is tested on Bacteroides sp. WH2 strain: WH2 for biotransformation. The drug concentrations were measured before and after a 12-h incubation by liquid-chromatography-coupled mass spectrometry (LC–MS); details: bacteroides sp. wh2, 12 h, 2 µM
[16] = parabacteroides johnsonii, 12 h, 2 µM
Description: The drug is tested on Parabacteroides johnsonii strain: DSM18315 for biotransformation. The drug concentrations were measured before and after a 12-h incubation by liquid-chromatography-coupled mass spectrometry (LC–MS)

[17] = The drug is tested on Blautia hansenii strain: DSM20583 for biotransformation. The drug concentrations were measured before and after a 12-h incubation by liquid-chromatography-coupled mass spectrometry (LC–MS); details: 2 µM
[18] = The drug is tested on Ruminococcus torques strain: ATCC27756 for biotransformation. The drug concentrations were measured before and after a 12-h incubation by liquid-chromatography-coupled mass spectrometry (LC–MS); assay type: ADME; parameters: dose 2 uM, timepoint 0 vs 12 hours; details: 2 µM
[19] = The drug is tested on Clostridium ramosum strain: DSM1402 for biotransformation. The drug concentrations were measured before and after a 12-h incubation by liquid-chromatography-coupled mass spectrometry (LC–MS); details: thomasclavelia ramosa, 2 µM
[20] = bifidobacterium adolescentis, 12 h, 2 µM
Description: The drug is tested on Bifidobacterium adolescentis strain: ATCC 15703 for biotransformation. The drug concentrations were measured before and after a 12-h incubation by liquid-chromatography-coupled mass spectrometry (LC–MS)

SMILES | Bacterial Biotransformation [1] | Bacterial Biotransformation [2] | Bacterial Biotransformation [3] | Bacterial Biotransformation [4] | Bacterial Biotransformation [5] | Bacterial Biotransformation [6] | Bacterial Biotransformation [7] | Bacterial Biotransformation [8] | Bacterial Biotransformation [9] | Bacterial Biotransformation [10] | Bacterial Biotransformation [11] | Bacterial Biotransformation [12] | Bacterial Biotransformation [13] | Bacterial Biotransformation [14] | Bacterial Biotransformation [15] | Bacterial Biotransformation [16] | Bacterial Biotransformation [17] | Bacterial Biotransformation [18] | Bacterial Biotransformation [19] | Bacterial Biotransformation [20]
CCOC(=O)[C@H](CCc1ccccc1)N[C@@H](C)C(=O)N1Cc2ccccc2C[C@H]1C(=O)O | Compound NOT metabolized | Compound metabolized | Compound metabolized | Compound metabolized | Compound NOT metabolized | Compound metabolized | Compound NOT metabolized | Compound metabolized | Compound NOT metabolized | Compound NOT metabolized | Compound NOT metabolized | Compound NOT metabolized | Compound metabolized | Compound NOT metabolized | Compound NOT metabolized | Compound metabolized | Compound metabolized | Compound NOT metabolized |  | 
NC12CC3CC(CC(C3)C1)C2 [AMANTADINE] | Compound NOT metabolized | Compound NOT metabolized |  | Compound NOT metabolized |  | Compound NOT metabolized | Compound NOT metabolized | Compound NOT metabolized |  | Compound NOT metabolized | Compound NOT metabolized | Compound NOT metabolized | Compound NOT metabolized | Compound NOT metabolized | Compound NOT metabolized | Compound NOT metabolized | Compound NOT metabolized | Compound NOT metabolized | Compound NOT metabolized | Compound NOT metabolized
CC(C)(C#N)c1cc(Cn2cncn2)cc(C(C)(C)C#N)c1 [ANASTROZOLE] | Compound NOT metabolized | Compound NOT metabolized | Compound metabolized | Compound NOT metabolized |  | Compound NOT metabolized | Compound NOT metabolized | Compound metabolized |  | Compound NOT metabolized | Compound NOT metabolized | Compound NOT metabolized |  | Compound NOT metabolized | Compound NOT metabolized | Compound metabolized | Compound metabolized | Compound NOT metabolized | Compound NOT metabolized | Compound NOT metabolized
CC(C)(Oc1ccc(CCNC(=O)c2ccc(Cl)cc2)cc1)C(=O)O [BEZAFIBRATE] | Compound metabolized | Compound metabolized | Compound metabolized | Compound metabolized | Compound metabolized | Compound metabolized | Compound metabolized | Compound metabolized | Compound metabolized | Compound metabolized | Compound metabolized | Compound metabolized | Compound metabolized | Compound metabolized | Compound metabolized | Compound NOT metabolized | Compound NOT metabolized | Compound metabolized |  | Compound metabolized
CCCC1O[C@@H]2C[C@H]3[C@@H]4CCC5=CC(=O)C=C[C@]5(C)[C@H]4[C@@H](O)C[C@]3(C)[C@]2(C(=O)CO)O1 (stereo partly drawn) [BUDESONIDE] | Compound NOT metabolized | Compound NOT metabolized | Compound metabolized | Compound NOT metabolized | Compound NOT metabolized |  | Compound NOT metabolized | Compound metabolized |  | Compound NOT metabolized | Compound NOT metabolized | Compound NOT metabolized | Compound NOT metabolized | Compound NOT metabolized | Compound NOT metabolized | Compound metabolized | Compound metabolized | Compound NOT metabolized |  | Compound NOT metabolized
O=C(O)COCCN1CCN(C(c2ccccc2)c2ccc(Cl)cc2)CC1 (stereo not drawn) [CETIRIZINE] | Compound NOT metabolized | Compound NOT metabolized | Compound metabolized | Compound metabolized |  |  | Compound NOT metabolized | Compound metabolized |  | Compound NOT metabolized | Compound NOT metabolized | Compound NOT metabolized | Compound metabolized | Compound NOT metabolized | Compound NOT metabolized | Compound NOT metabolized | Compound metabolized | Compound NOT metabolized | Compound NOT metabolized | 
COC(=O)[C@H](c1ccccc1Cl)N1CCc2sccc2C1.O=S(=O)(O)O [CLOPIDOGREL BISULFATE] | Compound NOT metabolized | Compound NOT metabolized | Compound metabolized | Compound NOT metabolized | Compound NOT metabolized | Compound NOT metabolized | Compound NOT metabolized | Compound metabolized | Compound NOT metabolized | Compound NOT metabolized | Compound NOT metabolized | Compound NOT metabolized | Compound metabolized | Compound NOT metabolized | Compound NOT metabolized | Compound metabolized | Compound metabolized | Compound NOT metabolized |  | Compound NOT metabolized
O=P1(N(CCCl)CCCl)NCCCO1 (stereo not drawn) [CYCLOPHOSPHAMIDE ANHYDROUS] | Compound NOT metabolized | Compound NOT metabolized | Compound NOT metabolized |  | Compound NOT metabolized | Compound NOT metabolized |  | Compound NOT metabolized |  |  |  | Compound NOT metabolized | Compound NOT metabolized |  | Compound NOT metabolized | Compound NOT metabolized | Compound metabolized | Compound NOT metabolized |  | Compound NOT metabolized
Cc1nc2n(c(=O)c1CCN1CCC(c3noc4cc(F)ccc34)CC1)CCCC2 [RISPERIDONE] | Compound metabolized | Compound metabolized | Compound NOT metabolized |  | Compound NOT metabolized |  | Compound metabolized | Compound NOT metabolized | Compound NOT metabolized | Compound NOT metabolized | Compound NOT metabolized | Compound NOT metabolized | Compound NOT metabolized | Compound metabolized | Compound NOT metabolized | Compound NOT metabolized | Compound metabolized | Compound NOT metabolized |  | Compound NOT metabolized
